# Reference: patent publication US20110098219A1, “System for Curing Hepatic Cancer with Leptin” (KAOHSIUNG MEDICAL UNIVERSITY, priority 2009, published 2011)
# Key:
# [1] = tested on: liver cancer patients; assay: Survival of liver cancer patients treated with MPA after surgery; format: in vivo, human; details: P value 0.008
# From the text: In ‘in vitro’ studies and clinical experiments, leptin and MPA are found to have obvious effect on suppressing liver cancer cells and improving patient's survival rate. Thus, the therapeutic drug is formed by combining MAP with leptin to cure liver cancer patients, where the physiological concentration of leptin in a normal human body is almost able to enhance the treatment effect of MPA. MPA is used for treatment in the present invention, where, for obtaining a better effect, leptin is directly combined with MPA or leptin is obtained by increasing the physiological concentration of leptin in the patient at first.
# Consequently, the leptin expression can be taken as an index for effectiveness of the hormone therapy (i.e. MPA) after the surgery; and, the survival time of the liver cancer patients can be maintained or even prolonged.
# [2] = target: T1, leptin receptor and progesterone receptor (Homo sapiens, UniProt P06401); assay: Immunoprecipitation and immunofluorescent staining, receptor interaction; format: cell-based
# T1 construct: endogenous in cells
# T1 sequence (P06401 1-933): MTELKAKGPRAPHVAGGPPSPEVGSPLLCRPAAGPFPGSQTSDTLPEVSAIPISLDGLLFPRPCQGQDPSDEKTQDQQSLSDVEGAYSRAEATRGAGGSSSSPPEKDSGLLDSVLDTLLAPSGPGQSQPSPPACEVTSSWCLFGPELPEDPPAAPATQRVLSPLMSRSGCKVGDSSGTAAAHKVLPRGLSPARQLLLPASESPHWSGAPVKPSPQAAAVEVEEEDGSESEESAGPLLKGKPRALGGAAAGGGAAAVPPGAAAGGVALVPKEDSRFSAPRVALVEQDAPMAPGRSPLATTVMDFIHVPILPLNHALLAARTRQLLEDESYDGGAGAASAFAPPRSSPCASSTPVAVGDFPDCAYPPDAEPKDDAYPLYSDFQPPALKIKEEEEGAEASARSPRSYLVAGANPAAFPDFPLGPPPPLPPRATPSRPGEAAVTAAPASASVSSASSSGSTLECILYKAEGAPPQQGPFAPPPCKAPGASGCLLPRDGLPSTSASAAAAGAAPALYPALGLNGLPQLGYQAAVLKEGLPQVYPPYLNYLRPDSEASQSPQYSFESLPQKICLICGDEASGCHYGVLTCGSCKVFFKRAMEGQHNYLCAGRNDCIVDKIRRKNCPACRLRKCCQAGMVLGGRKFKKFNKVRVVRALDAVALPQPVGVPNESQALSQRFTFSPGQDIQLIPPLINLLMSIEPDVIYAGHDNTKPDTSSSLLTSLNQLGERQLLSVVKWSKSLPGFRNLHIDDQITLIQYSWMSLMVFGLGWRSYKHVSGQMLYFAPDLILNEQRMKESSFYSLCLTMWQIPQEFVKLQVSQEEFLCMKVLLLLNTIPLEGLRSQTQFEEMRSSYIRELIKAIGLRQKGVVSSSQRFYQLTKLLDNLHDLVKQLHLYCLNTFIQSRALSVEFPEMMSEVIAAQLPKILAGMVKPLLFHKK
# T1 sequence (P48357 22-1165 partner): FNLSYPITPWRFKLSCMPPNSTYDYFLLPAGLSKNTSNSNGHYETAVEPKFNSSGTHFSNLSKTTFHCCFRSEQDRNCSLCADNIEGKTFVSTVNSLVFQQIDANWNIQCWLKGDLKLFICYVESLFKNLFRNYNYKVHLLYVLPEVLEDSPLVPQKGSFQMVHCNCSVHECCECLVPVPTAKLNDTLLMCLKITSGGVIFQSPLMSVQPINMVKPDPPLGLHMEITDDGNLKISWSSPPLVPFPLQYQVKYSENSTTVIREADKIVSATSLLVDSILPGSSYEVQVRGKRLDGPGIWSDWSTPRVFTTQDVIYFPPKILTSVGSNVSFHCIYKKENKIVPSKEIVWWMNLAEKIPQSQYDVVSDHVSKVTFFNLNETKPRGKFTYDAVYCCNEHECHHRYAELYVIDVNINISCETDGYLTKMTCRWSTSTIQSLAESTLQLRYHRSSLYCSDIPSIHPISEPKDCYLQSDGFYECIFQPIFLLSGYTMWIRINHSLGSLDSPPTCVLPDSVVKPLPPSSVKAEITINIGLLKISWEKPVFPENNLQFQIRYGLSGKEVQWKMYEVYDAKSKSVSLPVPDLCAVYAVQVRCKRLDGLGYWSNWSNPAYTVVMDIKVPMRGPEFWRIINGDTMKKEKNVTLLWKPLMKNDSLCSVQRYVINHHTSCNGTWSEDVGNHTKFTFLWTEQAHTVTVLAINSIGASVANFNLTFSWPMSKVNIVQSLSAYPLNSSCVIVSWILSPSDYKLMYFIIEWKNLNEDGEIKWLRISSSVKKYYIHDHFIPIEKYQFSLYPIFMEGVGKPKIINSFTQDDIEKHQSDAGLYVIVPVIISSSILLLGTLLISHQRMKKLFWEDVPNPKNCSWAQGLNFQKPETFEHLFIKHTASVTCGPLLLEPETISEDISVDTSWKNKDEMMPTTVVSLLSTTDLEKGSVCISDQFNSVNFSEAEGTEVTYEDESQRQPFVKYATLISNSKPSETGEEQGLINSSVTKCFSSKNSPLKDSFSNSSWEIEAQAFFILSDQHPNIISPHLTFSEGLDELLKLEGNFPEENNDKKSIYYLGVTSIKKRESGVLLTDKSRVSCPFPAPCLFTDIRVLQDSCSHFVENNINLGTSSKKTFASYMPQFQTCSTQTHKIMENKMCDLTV
# Procedure: Please refer to FIG. 8A and FIG. 8B, which are views showing interaction between a leptin receptor and a progesterone receptor through immunoprecipitation and immunofluorescent staining. As shown in the figures, for acknowledging interaction between a leptin receptor and a progesterone receptor, cellular proteins are processed through immunoprecipitation and western blotting with anti-pgR after liver cancer cells are applied with leptin only, MPA only and MPA+leptin for 30 minutes separately. […] The same results are shown through immunofluorescent staining. After the cells are processed for 10 minutes, the progesterone receptor is dyed with FITC; the leptin receptor is dyed with Texas-Red; and cell membrane is dyed with phalloidin, which are observed with fluoresce microscope under 40×. […] Thus, it is confirmed that the leptin receptor and the progesterone receptor interact to work on the liver cancer cells.
# [3] = tested on: liver cancer cells; assay: Flow cytometry, cell cycle of liver cancer cells; format: cell-based; details: MPA only, 24 hours
# Procedure: Please refer to FIG. 6A and FIG. 6B, which are views showing effect of MPA+leptin on cell cycle. As shown in the figures, for further recognizing role of MPA+leptin for liver cancer cells, the preferred embodiment applies leptin only, MPA only and MPA+leptin on liver cancer cells for 24 hours and a flow cytometry is used to show their effects on cell cycle. Furthermore, sub-G1/apoptosis parts in the cell cycle are analyzed through student's t-test.
# [4] = tested on: liver cancer patients; details: prior researches, FIG. 19B; P value 0.171; cited from earlier work
compound,measurement,setting,value
"CC(=O)O[C@]1(C(C)=O)CC[C@H]2[C@@H]3C[C@H](C)C4=CC(=O)CC[C@]4(C)[C@H]3CC[C@@]21C [MPA, medroxyprogesterone acetate]","survival time, patients with higher versus lower leptin expression",[1],longer survival time
same,merged level between leptin receptor and progesterone receptor,"[2]; 10 minutes, immunofluorescent staining",some of the leptin receptor are merged with some of the progesterone receptor
same,interaction of leptin receptor and progesterone receptor,"[2]; 30 minutes, immunoprecipitation and western blotting with anti-pgR",interacted
same,G1 and G2/M,[3],decreased trend
same,S,[3],increased trend
same,sub-G1,[3],increasing trend
same,association of patient's survival rate with MPA treatment after surgery,[4],did not find significant association
